# PubChem BioAssay (NCI)
#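 Tested at 5 concentrations; 48 h exposure; 96-well plates; endpoints linearly interpolated, else capped at highest concentration. TGI is the concentration that stops growth completely.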
# Tests used:
# Assay in all cases: inhibition of tumour cell growth, NCI panel, 48 h
# HOP-92 NSCLC = tested on: HOP-92 NSCLC
# OVCAR-4 ovarian = tested on: OVCAR-4 ovarian
# SR leukemia = tested on: SR leukemia
# HCT-116 colon = tested on: HCT-116 colon
# SW-620 colon = tested on: SW-620 colon
# TK-10 renal = tested on: TK-10 renal
# NCI-H226 lung = tested on: NCI-H226 lung
# A498 renal = tested on: A498 renal
# LOX IMVI melanoma = tested on: LOX IMVI melanoma
# IGROV1 ovarian = tested on: IGROV1 ovarian
# SK-MEL-28 melanoma = tested on: SK-MEL-28 melanoma
# 786-0 renal = tested on: 786-0 renal
# OVCAR-3 ovarian = tested on: OVCAR-3 ovarian
# EKVX NSCLC = tested on: EKVX NSCLC
# K-562 leukemia = tested on: K-562 leukemia
# HL-60(TB) leukemia = tested on: HL-60(TB) leukemia
# UO-31 renal = tested on: UO-31 renal
# UACC-257 melanoma = tested on: UACC-257 melanoma
# CAKI-1 renal = tested on: CAKI-1 renal
# KM12 colon = tested on: KM12 colon
# RPMI-8226 leukemia = tested on: RPMI-8226 leukemia
# M14 melanoma = tested on: M14 melanoma
# SNB-78 CNS = tested on: SNB-78 CNS
# DLD-1 colon = tested on: DLD-1 colon
# RXF 393 renal = tested on: RXF 393 renal
# NCI-H460 lung = tested on: NCI-H460 lung
# SNB-19 CNS = tested on: SNB-19 CNS
# SK-MEL-2 melanoma = tested on: SK-MEL-2 melanoma
# OVCAR-5 ovarian = tested on: OVCAR-5 ovarian
# A549 NSCLC = tested on: A549 NSCLC
# NCI-H23 lung = tested on: NCI-H23 lung
# SN12C renal = tested on: SN12C renal
# MOLT-4 leukemia = tested on: MOLT-4 leukemia
# SK-OV-3 ovarian = tested on: SK-OV-3 ovarian
# MALME-3M melanoma = tested on: MALME-3M melanoma
# U251 CNS = tested on: U251 CNS
# LXFL 529 NSCLC = tested on: LXFL 529 NSCLC
# NCI-H522 lung = tested on: NCI-H522 lung
# SNB-75 CNS = tested on: SNB-75 CNS
# M19-MEL melanoma = tested on: M19-MEL melanoma
# SK-MEL-5 melanoma = tested on: SK-MEL-5 melanoma
# SF-539 CNS = tested on: SF-539 CNS
# COLO 205 colon = tested on: COLO 205 colon
# SF-295 CNS = tested on: SF-295 CNS
# HOP-62 NSCLC = tested on: HOP-62 NSCLC
# CCRF-CEM leukemia = tested on: CCRF-CEM leukemia
# UACC-62 melanoma = tested on: UACC-62 melanoma
# OVCAR-8 ovarian = tested on: OVCAR-8 ovarian
# ACHN renal = tested on: ACHN renal
# HCC-2998 colon = tested on: HCC-2998 colon
# DMS 273 small cell lung = tested on: DMS 273 small cell lung
# SF-268 CNS = tested on: SF-268 CNS
# HT29 colon = tested on: HT29 colon
compound,measurement,setting,value
CC(=O)NC1=C(C)C(=O)c2c(nc3n2CCC3OC(=O)CCl)C1=O (stereo not drawn),TGI,HOP-92 NSCLC,5.15 µM
same,TGI,OVCAR-4 ovarian,4.19 µM
same,TGI,SR leukemia,> 100 µM
same,TGI,HCT-116 colon,5.57 µM
same,TGI,SW-620 colon,22.6 µM
same,TGI,TK-10 renal,43.1 µM
same,TGI,NCI-H226 lung,7.01 µM
same,TGI,A498 renal,27.4 µM
same,TGI,LOX IMVI melanoma,16.8 µM
same,TGI,IGROV1 ovarian,25.2 µM
same,TGI,SK-MEL-28 melanoma,31.4 µM
same,TGI,786-0 renal,21.6 µM
same,TGI,OVCAR-3 ovarian,3.68 µM
same,TGI,EKVX NSCLC,20.6 µM
same,TGI,K-562 leukemia,5.73 µM
same,TGI,HL-60(TB) leukemia,8.58 µM
same,TGI,UO-31 renal,31.9 µM
same,TGI,UACC-257 melanoma,25.5 µM
same,TGI,CAKI-1 renal,35.2 µM
same,TGI,KM12 colon,29.5 µM
same,TGI,RPMI-8226 leukemia,> 100 µM
same,TGI,M14 melanoma,32.2 µM
same,TGI,SNB-78 CNS,6.5 µM
same,TGI,DLD-1 colon,29.7 µM
same,TGI,RXF 393 renal,18.1 µM
same,TGI,NCI-H460 lung,56.2 µM
same,TGI,SNB-19 CNS,32.1 µM
same,TGI,SK-MEL-2 melanoma,10.2 µM
same,TGI,OVCAR-5 ovarian,25.5 µM
same,TGI,A549 NSCLC,26 µM
same,TGI,NCI-H23 lung,26.1 µM
same,TGI,SN12C renal,24.1 µM
same,TGI,MOLT-4 leukemia,4.48 µM
same,TGI,SK-OV-3 ovarian,37.9 µM
same,TGI,MALME-3M melanoma,16.6 µM
same,TGI,U251 CNS,11.8 µM
same,TGI,LXFL 529 NSCLC,5.12 µM
same,TGI,NCI-H522 lung,11.9 µM
same,TGI,SNB-75 CNS,30.1 µM
same,TGI,M19-MEL melanoma,26.3 µM
same,TGI,SK-MEL-5 melanoma,25.4 µM
same,TGI,SF-539 CNS,6.47 µM
same,TGI,COLO 205 colon,34.7 µM
same,TGI,SF-295 CNS,29.9 µM
same,TGI,HOP-62 NSCLC,31.6 µM
same,TGI,CCRF-CEM leukemia,4.52 µM
same,TGI,UACC-62 melanoma,6.33 µM
same,TGI,OVCAR-8 ovarian,16.6 µM
same,TGI,ACHN renal,42.5 µM
same,TGI,HCC-2998 colon,25.7 µM
same,TGI,DMS 273 small cell lung,33.6 µM
same,TGI,SF-268 CNS,21.9 µM
same,TGI,HT29 colon,30.3 µM
